Numbered stars: 1 amine (or outer) side, 2 acyl side, 3 side chain; on linkers, the order of the positions; unused ones are H or OH. Bridge positions count the residues as written; N and C are the ends. Square brackets hold non-standard residues; d marks the D form. Peptide text beside a SMILES is read from it. Trp(7-Me) = Cc1cccc2c(C[C@H](N)C(=O)O)c[nH]c12; Abu(4-yl) = O=C([C@H](CC[*:3])N[*:1])[*:2]; 2Nal = N[C@@H](Cc1ccc2ccccc2c1)C(=O)O; AEF = NCCOc1ccc(C[C@H](N)C(=O)O)cc1; αMeF = C[C@](N)(Cc1ccccc1)C(=O)O; Cit = NC(=O)NCCC[C@H](N)C(=O)O; Pen = CC(C)(S)[C@H](N)C(=O)O; αMeK = C[C@](N)(CCCCN)C(=O)O; Sar = CNCC(=O)O
Columns and labels:
Assay type in all cases: in vitro ADME
[1] = Stability in cynomolgus monkey fecal homogenate; details: 20% fecal homogenate (supernatant), pH 6.8, 20% cynomolgus monkey fecal homogenate, anaerobic, 37° C., read-out: t½: Monkey Feces anaerobic (converted)
Procedure: (§1) Centrifuged the homogenate at 2800×g for 15 min. The supernatant is taken out and used for incubations. […] The final test compound concentration was 20 μM.

[2] = Stability in human fecal homogenate; details: 20% fecal homogenate (supernatant), pH 6.8, 20% human fecal homogenate, anaerobic, 37° C., read-out: t½: Human Feces anaerobic (converted)
Procedure: as §1

Stability in rat plasma = details: both sexes, SD rat plasma, EDTA, 37° C., read-out: t½: Rat Plasma EDTA (converted)
[3] = Stability in simulated intestinal fluid (SIF); details: simulated intestinal fluid with pancreatin, pH 6.8, 37° C., matrix is 100 fold dilution of standard SIF concentration; for half-life at 20 μM: read-out: SIF t½ (converted); for SIF t½: 20 μM

Row | half-life at 20 μM [1] [h] | half-life at 20 μM [2] [h] | half-life at 20 μM (Stability in rat plasma) [h] | half-life at 20 μM [3] [h] | SIF t½ [3] [h] | Compound
1 | 13 | > 24 | > 24 | 20 | – | CC(=O)NCCCC[C@@H]1NC(=O)[C@H](Cc2c[nH]c3c(C)cccc23)NC(=O)[C@H]([C@@H](C)O)NC(=O)[C@H](CCC(N)=O)NC(=O)[C@@H](NC(=O)[C@@H](CCCNC(=N)N)NC(C)=O)CCSC[C@@H](C(=O)N[C@@H](Cc2ccc(OCCN)cc2)C(=O)N[C@@H](Cc2ccc3ccccc3c2)C(=O)N[C@@](C)(CCCCN)C(=O)N[C@@H](CCCCNC(C)=O)C(=O)N[C@@H](CC(N)=O)C(=O)N[C@H](CCCCN)C(=O)N(C)CC(N)=O)NC1=O [compound 323] (Ac-[dR][Abu(4-yl)]QT[Trp(7-Me)]K(Ac)C[AEF][2Nal][αMeK]K(Ac)N[dK][Sar]-NH2; thioether 2-7)
2 | 13 | > 24 | > 24 | 13 | – | CC(=O)NCCCC[C@@H]1NC(=O)[C@H](Cc2c[nH]c3c(C)cccc23)NC(=O)[C@H]([C@@H](C)O)NC(=O)[C@H](CCC(N)=O)NC(=O)[C@@H](NC(=O)[C@@H](CCCNC(=N)N)NC(C)=O)CCSC[C@@H](C(=O)N[C@@H](Cc2ccc(OCCN)cc2)C(=O)N[C@@H](Cc2ccc3ccccc3c2)C(=O)N[C@@](C)(CCCCN)C(=O)N[C@@H](CCCCNC(C)=O)C(=O)N[C@@H](CC(N)=O)C(=O)N[C@H](CCCCN)C(N)=O)NC1=O [compound 324] (Ac-[dR][Abu(4-yl)]QT[Trp(7-Me)]K(Ac)C[AEF][2Nal][αMeK]K(Ac)N[dK]-NH2; thioether 2-7)
3 | 24 | > 24 | > 24 | – | 24 | CC(=O)NCCCC[C@@H]1NC(=O)[C@H](Cc2c[nH]c3c(C)cccc23)NC(=O)[C@H]([C@@H](C)O)NC(=O)[C@H](CCC(N)=O)NC(=O)[C@@H](NC(=O)[C@@H](CCCNC(=N)N)NC(C)=O)CCSC[C@@H](C(=O)N[C@@H](Cc2ccc(OCCN)cc2)C(=O)N[C@@H](Cc2ccc3ccccc3c2)C(=O)N[C@@](C)(CCCCN)C(=O)N[C@@H](CCCCNC(C)=O)C(=O)N[C@@H](CC(N)=O)C(=O)N[C@@](C)(Cc2ccccc2)C(N)=O)NC1=O [compound 327] (Ac-[dR][Abu(4-yl)]QT[Trp(7-Me)]K(Ac)C[AEF][2Nal][αMeK]K(Ac)N[αMeF]-NH2; thioether 2-7)
4 | > 24 | > 24 | > 24 | 23 | – | CC(=O)NCCCC[C@@H]1NC(=O)[C@H](Cc2c[nH]c3c(C)cccc23)NC(=O)[C@H]([C@@H](C)O)NC(=O)[C@H](C)NC(=O)[C@@H](NC(C)=O)C(C)(C)SSC(C)(C)[C@@H](C(=O)N[C@@H](Cc2ccc(OCCN)cc2)C(=O)N[C@@H](Cc2ccc3ccccc3c2)C(=O)N[C@@](C)(CCCCN)C(=O)N[C@@H](CCCCNC(C)=O)C(=O)N[C@@H](CC(N)=O)C(=O)N[C@H](CC(C)C)C(N)=O)NC1=O [compound 328] (Ac-[Pen]AT[Trp(7-Me)]K(Ac)[Pen][AEF][2Nal][αMeK]K(Ac)N[dL]-NH2; disulfide 1-6)
5 | > 24 | > 24 | > 24 | 12 | – | CC(=O)NCCCC[C@@H]1NC(=O)[C@H](Cc2c[nH]c3c(C)cccc23)NC(=O)[C@H]([C@@H](C)O)NC(=O)CNC(=O)[C@@H](NC(C)=O)C(C)(C)SSC(C)(C)[C@@H](C(=O)N[C@@H](Cc2ccc(OCCN)cc2)C(=O)N[C@@H](Cc2ccc3ccccc3c2)C(=O)N[C@@](C)(CCCCN)C(=O)N[C@@H](CCCCNC(C)=O)C(=O)N[C@@H](CC(N)=O)C(=O)N[C@H](CC(C)C)C(N)=O)NC1=O [compound 329] (Ac-[Pen]GT[Trp(7-Me)]K(Ac)[Pen][AEF][2Nal][αMeK]K(Ac)N[dL]-NH2; disulfide 1-6)
6 | > 24 | > 24 | > 24 | – | 24 | CC(=O)NCCCC[C@@H]1NC(=O)[C@H](Cc2c[nH]c3c(C)cccc23)NC(=O)[C@H]([C@@H](C)O)NC(=O)[C@H](CCCCNC(C)=O)NC(=O)[C@@H](NC(C)=O)C(C)(C)SSC(C)(C)[C@@H](C(=O)N[C@@H](Cc2ccc(OCCN)cc2)C(=O)N[C@@H](Cc2ccc3ccccc3c2)C(=O)N[C@@](C)(CCCCN)C(=O)N[C@@H](CCCCNC(C)=O)C(=O)N[C@@H](CC(N)=O)C(=O)N[C@H](CC(C)C)C(N)=O)NC1=O [compound 330] (Ac-[Pen]K(Ac)T[Trp(7-Me)]K(Ac)[Pen][AEF][2Nal][αMeK]K(Ac)N[dL]-NH2; disulfide 1-6)
7 | > 24 | > 24 | > 24 | 15 | – | CC(=O)NCCCC[C@@H]1NC(=O)[C@H](Cc2c[nH]c3c(C)cccc23)NC(=O)[C@H]([C@@H](C)O)NC(=O)[C@H](CCCNC(N)=O)NC(=O)[C@@H](NC(C)=O)C(C)(C)SSC(C)(C)[C@@H](C(=O)N[C@@H](Cc2ccc(OCCN)cc2)C(=O)N[C@@H](Cc2ccc3ccccc3c2)C(=O)N[C@@](C)(CCCCN)C(=O)N[C@@H](CCCCNC(C)=O)C(=O)N[C@@H](CC(N)=O)C(=O)N[C@H](CC(C)C)C(N)=O)NC1=O [compound 331] (Ac-[Pen][Cit]T[Trp(7-Me)]K(Ac)[Pen][AEF][2Nal][αMeK]K(Ac)N[dL]-NH2; disulfide 1-6)
8 | > 24 | > 24 | > 24 | – | 24 | CC(=O)NCCCC[C@@H]1NC(=O)[C@H](Cc2c[nH]c3c(C)cccc23)NC(=O)[C@H]([C@@H](C)O)NC(=O)[C@H](CC(C)C)NC(=O)[C@@H](NC(C)=O)C(C)(C)SSC(C)(C)[C@@H](C(=O)N[C@@H](Cc2ccc(OCCN)cc2)C(=O)N[C@@H](Cc2ccc3ccccc3c2)C(=O)N[C@@](C)(CCCCN)C(=O)N[C@@H](CCCCNC(C)=O)C(=O)N[C@@H](CC(N)=O)C(=O)N[C@H](CC(C)C)C(N)=O)NC1=O [compound 332] (Ac-[Pen]LT[Trp(7-Me)]K(Ac)[Pen][AEF][2Nal][αMeK]K(Ac)N[dL]-NH2; disulfide 1-6)
9 | 24 | > 24 | > 24 | 22 | – | CC(=O)NCCCC[C@@H]1NC(=O)[C@H](Cc2c[nH]c3c(C)cccc23)NC(=O)[C@H]([C@@H](C)O)NC(=O)[C@@H]2CCCN2C(=O)[C@@H](NC(C)=O)C(C)(C)SSC(C)(C)[C@@H](C(=O)N[C@@H](Cc2ccc(OCCN)cc2)C(=O)N[C@@H](Cc2ccc3ccccc3c2)C(=O)N[C@@](C)(CCCCN)C(=O)N[C@@H](CCCCNC(C)=O)C(=O)N[C@@H](CC(N)=O)C(=O)N[C@H](CC(C)C)C(N)=O)NC1=O [compound 333] (Ac-[Pen]PT[Trp(7-Me)]K(Ac)[Pen][AEF][2Nal][αMeK]K(Ac)N[dL]-NH2; disulfide 1-6)
10 | > 24 | > 24 | > 24 | – | 24 | CC(=O)NCCCC[C@@H]1NC(=O)[C@H](Cc2c[nH]c3c(C)cccc23)NC(=O)[C@H]([C@@H](C)O)NC(=O)[C@H](CO)NC(=O)[C@@H](NC(C)=O)C(C)(C)SSC(C)(C)[C@@H](C(=O)N[C@@H](Cc2ccc(OCCN)cc2)C(=O)N[C@@H](Cc2ccc3ccccc3c2)C(=O)N[C@@](C)(CCCCN)C(=O)N[C@@H](CCCCNC(C)=O)C(=O)N[C@@H](CC(N)=O)C(=O)N[C@H](CC(C)C)C(N)=O)NC1=O [compound 334] (Ac-[Pen]ST[Trp(7-Me)]K(Ac)[Pen][AEF][2Nal][αMeK]K(Ac)N[dL]-NH2; disulfide 1-6)

From patent publication US11041000B2, “Peptide inhibitors of interleukin-23 receptor and their use to treat inflammatory diseases” (priority 2019, dated 2021)
